According to patent US9365576B2, “Pyrrolopyrrolidinone compounds” (Novartis AG, priority 2012, dated 2016):

molecular target: human MDM2 protein (amino acids 2-188) (Homo sapiens (Human), UniProt Q00987); assay: TR-FRET assay, p53-MDM2 Assay 2 (modified); format: binding; conditions: TR-FRET; 0.1 nM MDM2, 0.1 nM Europium labeled streptavidin, Tecan genios Pro reader; read-out: IC50 p53-MDM2 Assay 2
Description: The inhibition of p53-MDM2 and p53-MDM4 interactions is measured by time resolved fluorescence energy transfer (TR-FRET). Fluorescence energy transfer (or Foerster resonance energy transfer) describes an energy transfer between donor and acceptor fluorescent molecules. For this assay, human MDM2 protein (amino acids 2-188) and human MDM4 protein (amino acids 2-185), tagged with a C-terminal biotin moiety, are used in combination with a Europium labeled streptavidin (Perkin Elmer, Inc., Waltham, Mass., USA) serving as the donor fluorophore. The p53 derived, Cy5 labeled peptide Cy5-[…] (p53 aa18-26) is the energy acceptor. Upon excitation of the donor molecule at 340 nm, binding interaction between MDM2 or MDM4 and the p53 peptide induces energy transfer and enhanced response at the acceptor emission wavelength at 665 nm. […] The ratiometric FRET assay readout is calculated from the raw data of the two distinct fluorescence signals measured in time resolved mode (fluorescence 665 nm/fluorescence 620 nm×1000).
After addition of 1.25 nM MDM2-biotinylated or 2.5 nM MDM4-biotinylated (internal preparations), and 0.625 nM Europium labeled streptavidin (Perkin Elmer), the solution is pre-incubated for 15 minutes at room temperature, then 10 nM Cy5-p53 peptide (internal preparation) is added before an incubation at room temperature for 15 minutes prior to reading the plate. For measurement of samples, a Victor II microplate reader (Perkin Elmer) is used with the following settings: Excitation 340 nm, Emission Donor 620 nm and Emission Acceptor 665 nm. IC50 values are calculated by curve fitting using XLfit. If not specified, reagents are purchased from Sigma-Aldrich Chemie GmBH, Buchs, Switzerland.

Sequence of human MDM2 protein (amino acids 2-188) (Q00987 2-188): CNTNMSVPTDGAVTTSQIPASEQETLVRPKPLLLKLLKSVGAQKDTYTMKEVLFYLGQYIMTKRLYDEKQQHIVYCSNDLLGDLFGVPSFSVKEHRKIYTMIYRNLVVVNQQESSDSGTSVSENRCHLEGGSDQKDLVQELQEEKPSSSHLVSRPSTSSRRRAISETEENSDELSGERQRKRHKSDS

Row | IC50 [nM] | Structure (SMILES)
1 | 1.67 | COc1nc(N(C)C)ncc1-c1cc2c(n1C(C)C)C(c1ccc(C#N)cc1)N([C@H]1CC[C@H](O)CC1)C2=O (stereo partly drawn) [Example 174, 4-[2-(2-Dimethylamino-4-methoxy-pyrimidin-5-yl)-5-(trans-4-hydroxy-cyclohexyl)-1-isopropyl-4-oxo-1,4,5,6-tetrahydro-pyrrolo[3,4-b]pyrrol-6-yl]-benzonitrile]
2 | 0.631 | COc1nc(N(C)C)ncc1-c1cc2c(n1C(C)C)[C@H](c1ccc(C#N)cc1)N(C1CCOCC1)C2=O [Example 190, 4-[(S)-2-(2-Dimethylamino-4-methoxy-pyrimidin-5-yl)-1-isopropyl-4-oxo-5-(tetrahydro-pyran-4-yl)-1,4,5,6-tetrahydro-pyrrolo[3,4-b]pyrrol-6-yl]-benzonitrile]
3 | 13.6 | COc1ncc(-c2cc3c(n2C(C)C)C(c2ccc(C#N)cc2)N([C@H]2CC[C@H](O)CC2)C3=O)c(OC)n1 (stereo partly drawn) [Example 173, 4-[2-(2,4-Dimethoxy-pyrimidin-5-yl)-5-(trans-4-hydroxy-cyclohexyl)-1-isopropyl-4-oxo-1,4,5,6-tetrahydro-pyrrolo[3,4-b]pyrrol-6-yl]-benzonitrile]
4 | 0.119 | COc1nc(N(C)C)ncc1-c1cc2c(n1C(C)C)C(c1ccc(Cl)c(F)c1)N(c1cc(Cl)c[nH]c1=O)C2=O (stereo not drawn) [Example 203, 6-(4-Chloro-3-fluoro-phenyl)-5-(5-chloro-2-oxo-1,2-dihydro-pyridin-3-yl)-2-(2-dimethylamino-4-methoxy-pyrimidin-5-yl)-1-isopropyl-5,6-dihydro-1H-pyrrolo[3,4-b]pyrrol-4-one]
5 | 0.277 | COC[C@@H](C)n1c(-c2cnc(OC)nc2OC)cc2c1C(c1ccc(Cl)cc1)N(c1cc(Cl)c(=O)n(C)c1)C2=O (stereo partly drawn) [Example 225]
6 | 0.25 | COc1nc(N(C)C)ncc1-c1cc2c(n1C(C)C)C(c1ccc(C#N)c(F)c1)N(c1cc(Cl)c[nH]c1=O)C2=O (stereo not drawn) [Example 201, 4-[5-(5-Chloro-2-oxo-1,2-dihydro-pyridin-3-yl)-2-(2-dimethylamino-4-methoxy-pyrimidin-5-yl)-1-isopropyl-4-oxo-1,4,5,6-tetrahydro-pyrrolo[3,4-b]pyrrol-6-yl]-2-fluoro-benzonitrile]
7 | 2.39 | COc1ncc(-c2cc3c(n2C(C)C)C(c2ccc(Cl)cc2)N(c2cn(C)nc2C)C3=O)c(OC)n1 (stereo not drawn) [Example 181, 6-(4-Chloro-phenyl)-2-(2,4-dimethoxy-pyrimidin-5-yl)-5-(1,3-dimethyl-1H-pyrazol-4-yl)-1-isopropyl-5,6-dihydro-1H-pyrrolo[3,4-b]pyrrol-4-one]
8 | 42.7 | COc1ncc(-c2cc3c(n2C(C)C)[C@@](C)(c2ccc(Cl)cc2)N(c2cc(Cl)c(=O)n(C)c2)C3=O)c(OC)n1 [Example 163, (R)-5-(5-Chloro-1-methyl-6-oxo-1,6-dihydro-pyridin-3-yl)-6-(4-chloro-phenyl)-2-(2,4-dimethoxy-pyrimidin-5-yl)-1-isopropyl-6-methyl-5,6-dihydro-1H-pyrrolo[3,4-b]pyrrol-4-one]

Continued, compound first:

Row | Structure (SMILES) | IC50 [nM]
9 | COc1ccc(C(=O)N2CCOCC2)cc1-c1cc2c(n1C(C)C)C(c1ccc(Cl)cc1)N(c1cc(Cl)ccc1C)C2=O (stereo not drawn) [Example 28, 5-(5-Chloro-2-methyl-phenyl)-6-(4-chloro-phenyl)-1-isopropyl-2-[2-methoxy-5-(morpholine-4-carbonyl)-phenyl]-5,6-dihydro-1H-pyrrolo[3,4-b]pyrrol-4-one] | 0.106
10 | CNC(=O)c1ccc(OC)c(-c2cc3c(n2C(C)C)C(c2ccc(Cl)cc2C)N(c2cc(Cl)ccc2C)C3=O)c1 (stereo not drawn) [Example 31, 3-[5-(5-Chloro-2-methyl-phenyl)-6-(4-chloro-2-methyl-phenyl)-1-isopropyl-4-oxo-1,4,5,6-tetrahydro-pyrrolo[3,4-b]pyrrol-2-yl]-4-methoxy-N-methyl-benzamide] | 0.184
11 | COc1nc(N)ncc1-c1cc2c(n1C(C)C)C(c1ccc(C#N)cc1)N(c1cccc(Cl)c1F)C2=O (stereo not drawn) [Example 41, 4-[2-(2-Amino-4-methoxy-pyrimidin-5-yl)-5-(3-chloro-2-fluoro-phenyl)-1-isopropyl-4-oxo-1,4,5,6-tetrahydro-pyrrolo[3,4-b]pyrrol-6-yl]-benzonitrile] | 0.349
12 | COc1nc(N(C)C)ncc1-c1cc2c(n1C(C)C)C(c1ccc(Cl)cc1)N([C@H]1CC[C@H](OC)CC1)C2=O (stereo partly drawn) [Example 142, 6-(4-Chloro-phenyl)-2-(2-dimethylamino-4-methoxy-pyrimidin-5-yl)-1-isopropyl-5-(trans-4-methoxy-cyclohexyl)-5,6-dihydro-1H-pyrrolo[3,4-b]pyrrol-4-one] | 0.74
13 | CNC(=O)c1ccc(OC)c(-c2cc3c(n2C(C)C)C(c2ccc(Cl)cc2)N([C@H]2CC[C@H](O)CC2)C3=O)c1 (stereo partly drawn) [Example 64, 3-[6-(4-Chloro-phenyl)-5-(trans-4-hydroxy-cyclohexyl)-1-isopropyl-4-oxo-1,4,5,6-tetrahydro-pyrrolo[3,4-b]pyrrol-2-yl]-4-methoxy-N-methyl-benzamide] | 1
14 | COc1ncc(-c2cc3c(n2C(C)C)[C@H](c2ccc(Cl)cc2C)N(c2cc(Cl)c(=O)n(C)c2)C3=O)c(OC)n1 [Example 160, (S)-5-(5-Chloro-1-methyl-6-oxo-1,6-dihydro-pyridin-3-yl)-6-(4-chloro-2-methyl-phenyl)-2-(2,4-dimethoxy-pyrimidin-5-yl)-1-isopropyl-5,6-dihydro-1H-pyrrolo[3,4-b]pyrrol-4-one] | 0.144
15 | COc1ccc(C#N)cc1-c1cc2c(n1C(C)C)C(c1ccc(Cl)cc1)N(c1cc(Cl)ccc1C)C2=O (stereo not drawn) [Example 17, 3-[5-(5-Chloro-2-methyl-phenyl)-6-(4-chloro-phenyl)-1-isopropyl-4-oxo-1,4,5,6-tetrahydro-pyrrolo[3,4-b]pyrrol-2-yl]-4-methoxy-benzonitrile] | 0.281
16 | COc1nc(N(C)C)ncc1-c1cc2c(n1C(C)C)C(c1ccc(C#N)cc1)N(c1cccc(Cl)c1F)C2=O (stereo not drawn) [Example 94, 4-[5-(3-Chloro-2-fluoro-phenyl)-2-(2-dimethylamino-4-methoxy-pyrimidin-5-yl)-1-isopropyl-4-oxo-1,4,5,6-tetrahydro-pyrrolo[3,4-b]pyrrol-6-yl]-benzonitrile] | 0.188
17 | COc1ncc(-c2cc3c(n2C(C)C)[C@H](c2ccc(Cl)cc2)N(c2cc(Cl)ccc2C)C3=O)c(OC)n1 [Example 23, (S)-5-(5-Chloro-2-methyl-phenyl)-6-(4-chloro-phenyl)-2-(2,4-dimethoxy-pyrimidin-5-yl)-1-isopropyl-5,6-dihydro-1H-pyrrolo[3,4-b]pyrrol-4-one] | 0.065
18 | CNc1ncc(-c2cc3c(n2C(C)C)C(c2ccc(Cl)cc2)N(c2cc(Cl)c[nH]c2=O)C3=O)c(OC)n1 (stereo not drawn) [Example 124, 5-(5-Chloro-2-oxo-1,2-dihydro-pyridin-3-yl)-6-(4-chloro-phenyl)-1-isopropyl-2-(4-methoxy-2-methylamino-pyrimidin-5-yl)-5,6-dihydro-1H-pyrrolo[3,4-b]pyrrol-4-one] | 0.185
19 | CNC(=O)c1ccc(OC)c(-c2cc3c(n2C(C)C)[C@@H](c2ccc(Cl)cc2)N(c2cc(Cl)ccc2C)C3=O)c1 [Example 19, 3-[(R)-5-(5-Chloro-2-methyl-phenyl)-6-(4-chloro-phenyl)-1-isopropyl-4-oxo-1,4,5,6-tetrahydro-pyrrolo[3,4-b]pyrrol-2-yl]-4-methoxy-N-methyl-benzamide] | 181
20 | COc1ncc(-c2c(C#N)c3c(n2C(C)C)C(c2ccc(Cl)cc2)N(c2cc(Cl)c(=O)n(C)c2)C3=O)c(OC)n1 (stereo not drawn) [Example 120, 5-(5-Chloro-1-methyl-6-oxo-1,6-dihydro-pyridin-3-yl)-6-(4-chloro-phenyl)-2-(2,4-dimethoxy-pyrimidin-5-yl)-1-isopropyl-4-oxo-1,4,5,6-tetrahydro-pyrrolo[3,4-b]pyrrole-3-carbonitrile] | 0.167
21 | COc1nc(N)ncc1-c1cc2c(n1C(C)C)C(c1ccc(Cl)cc1C)N(c1cc(Cl)c(=O)n(C)c1)C2=O (stereo not drawn) [Example 148, 2-(2-Amino-4-methoxy-pyrimidin-5-yl)-5-(5-chloro-1-methyl-6-oxo-1,6-dihydro-pyridin-3-yl)-6-(4-chloro-2-methyl-phenyl)-1-isopropyl-5,6-dihydro-1H-pyrrolo[3,4-b]pyrrol-4-one] | 0.592
22 | Cc1ccc(Cl)cc1N1C(=O)c2cc(-c3ccccc3O)n(C(C)C)c2C1c1ccc(Cl)cc1 (stereo not drawn) [Example 29, 5-(5-Chloro-2-methyl-phenyl)-6-(4-chloro-phenyl)-2-(2-hydroxy-phenyl)-1-isopropyl-5,6-dihydro-1H-pyrrolo[3,4-b]pyrrol-4-one] | 0.306
23 | COc1nc(N)ncc1-c1cc2c(n1C(C)C)C(c1ccc(Cl)cc1)N(c1cc(Cl)cn(C)c1=O)C2=O (stereo not drawn) [Example 71, 2-(2-Amino-4-methoxy-pyrimidin-5-yl)-5-(5-chloro-1-methyl-2-oxo-1,2-dihydro-pyridin-3-yl)-6-(4-chloro-phenyl)-1-isopropyl-5,6-dihydro-1H-pyrrolo[3,4-b]pyrrol-4-one] | 0.635
24 | COc1ncccc1-c1cc2c(n1C(C)C)C(c1ccc(Cl)cc1C)N(c1cccc(Cl)c1F)C2=O (stereo not drawn) [Example 5, 5-(3-Chloro-2-fluoro-phenyl)-6-(4-chloro-2-methyl-phenyl)-1-isopropyl-2-(2-methoxy-pyridin-3-yl)-5,6-dihydro-1H-pyrrolo[3,4-b]pyrrol-4-one] | 1.7
